Patent US20060182792A1, “Liposome-forming compositions” (priority 2002, published 2006)

Assay: Absolute oral bioavailability of liposomally administered octreotide per os in rats
Method: Wistar rats (with approximately 250 g body weight) fast for 12 hours and receive 0.5 ml of the aqueous mixture of the composition according to the invention by pharyngeal probe so that the administered amount of octreotide is 100 μg per animal. As a comparative test 100 μg of free octreotide was dissolved in 0.5 ml of PBS and administered via pharyngeal probe. Blood samples were taken after 30, 60, 120 and 240 min. retroorbitally. An i.v. injection of 2 μg of octreotide per animal provided a control in order to determine the absolute bioavailability. […] Six animals were tested for each formulation.

In the case of `C[C@@H](O)[C@@H]1NC(=O)[C@H](CCCCN)NC(=O)[C@@H](Cc2c[nH]c3ccccc23)NC(=O)[C@H](Cc2ccccc2)NC(=O)[C@@H](NC(=O)[C@H](N)Cc2ccccc2)CSSC[C@@H](C(=O)N[C@H](CO)[C@@H](C)O)NC1=O` [Free, octreotide], the bioavailability (Wistar, rat, in vivo, 100 μg per animal) is reported as 0.5% and the “Gain factor of the absolute bioavailability vs free octreotide” value (free octreotide, oral, 0.1 mg/animal, lipid/peptide 0) is reported as 1.
